Measurements as given in patent US9409905B2, “Antibacterial compounds and methods for use” (PTC THERAPEUTICS, INC., priority 2011, dated 2016).
Converted amounts (≈) assume the structure as drawn.

Experiments:
[1] = tested on: Escherichia coli (E. coli) BAS849; assay: Antibacterial activity, microbroth dilution MIC (Table 1); type: cell-based; conditions: microbroth dilution, super sensitive Gram-negative E. coli BAS849, read-out: MIC, BAS849
Method in brief: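 Lowest concentration stopping macroscopically visible growth under test conditions, by broth microdilution, defines the MIC (μg/mL).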

[2] = tested on: Staphylococcus aureus (S. aureus) 29213; assay: as above; type: cell-based; conditions: microbroth dilution, Gram-positive S. aureus 29213, read-out: MIC, 29213
Method in brief: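 MIC (μg/mL) is taken as the lowest concentration with no macroscopically visible growth. Strains tested by microbroth dilution: Gram-positive S. aureus 29213, control Gram-negative E. coli 25922, and super-sensitive E. coli BAS849.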

E. coli 25922 = assay: as above; type: cell-based, Escherichia coli; conditions: Escherichia coli; microbroth dilution; control Gram-negative E. coli 25922 strain; read-out: MIC, 25922
Method in brief: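 In a microbroth dilution test, the minimum inhibitory concentration was defined as the lowest compound level preventing growth seen by eye, and was given in μg/mL.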

E. coli LZ3111 = assay: Antibacterial activity, MIC, quinolone resistant strain (Table 2); type: cell-based; conditions: Escherichia coli, LZ3111, read-out: MIC LZ3111
Method in brief: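 Lowest concentration giving no macroscopically visible growth was taken as the MIC (μg/mL) after microbroth dilution testing.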

Row | SMILES | MIC [1] [µg/mL] | MIC [2] [µg/mL] | MIC (E. coli 25922) [µg/mL] | MIC (E. coli LZ3111) [µg/mL]
1 | CCc1cc(C(=O)O)c(=O)[nH]c1-c1ccc2c(c1)cc(C(C)N1CCCC1)n2C (stereo not drawn) [Cpd 157, 5-ethyl-6-(1-methyl-2-(1-(pyrrolidin-1-yl)ethyl)-1H-indol-5-yl)-2-oxo-1,2-dihydropyridine-3-carboxylic acid] | < 1 | 12.5 to 150 (≈ 31.8 to 381 µM) | 3.5 to 12.5 (≈ 8.89 to 31.8 µM) | 12.5 to 150 (≈ 31.8 to 381 µM)
2 | CCc1cc(C(=O)O)c(=O)[nH]c1-c1ccc2c(cc(CN3CCCC3)n2C)c1F [Cpd 158, 5-ethyl-6-(4-fluoro-1-methyl-2-(pyrrolidin-1-ylmethyl)-1H-indol-5-yl)-2-oxo-1,2-dihydropyridine-3-carboxylic acid] | < 1 | 12.5 to 150 (≈ 31.5 to 377 µM) | 1 to 3.5 (≈ 2.52 to 8.81 µM) | 12.5 to 150 (≈ 31.5 to 377 µM)
3 | CCc1cc(C(=O)O)c(=O)[nH]c1-c1ccc2c(c1)cc(CCN)n2C.Cl [Cpd 163, 6-(2-(2-aminoethyl)-1-methyl-1H-indol-5-yl)-5-ethyl-2-oxo-1,2-dihydropyridine-3-carboxylic acid hydrochloride] | < 1 | 12.5 to 150 | 12.5 to 150 | 12.5 to 150
4 | CCc1c(-c2ccc3c(c2)cc(CN2C[C@@H](C)N(C)[C@@H](C)C2)n3C)[nH]c(=O)c(C(=O)O)c1O [Cpd 170, 5-ethyl-4-hydroxy-6-(1-methyl-2-(((3S,5R)-3,4,5-trimethylpiperazin-1-yl)methyl)-1H-indol-5-yl)-2-oxo-1,2-dihydropyridine-3-carboxylic acid] | < 1 | 12.5 to 150 (≈ 27.6 to 331 µM) | 3.5 to 12.5 (≈ 7.73 to 27.6 µM) | 12.5 to 150 (≈ 27.6 to 331 µM)
5 | CCc1c(-c2ccc3c(c2)cc(CN2C[C@@H](C)O[C@@H](C)C2)n3C)[nH]c(=O)c(C(=O)O)c1O [Cpd 172, 6-(2-(((2S,6R)-2,6-dimethylmorpholino)methyl)-1-methyl-1H-indol-5-yl)-5-ethyl-4-hydroxy-2-oxo-1,2-dihydropyridine-3-carboxylic acid] | < 1 | 3.5 to 12.5 (≈ 7.96 to 28.4 µM) | 12.5 to 150 (≈ 28.4 to 341 µM) | 12.5 to 150 (≈ 28.4 to 341 µM)
6 | CCc1c(-c2ccc3c(c2)cc(CN2CCN(C(C)C)CC2)n3C)[nH]c(=O)c(C(=O)O)c1O [Cpd 174, 5-ethyl-4-hydroxy-6-(2-((4-isopropylpiperazin-1-yl)methyl)-1-methyl-1H-indol-5-yl)-2-oxo-1,2-dihydropyridine-3-carboxylic acid] | < 1 | 3.5 to 12.5 (≈ 7.73 to 27.6 µM) | 1 to 3.5 (≈ 2.21 to 7.73 µM) | 12.5 to 150 (≈ 27.6 to 331 µM)
7 | CCc1c(-c2ccc3c(c2)cc(CN2CCN(C(C)=O)CC2)n3C)[nH]c(=O)c(C(=O)O)c1O [Cpd 175, 6-(2-((4-acetylpiperazin-1-yl)methyl)-1-methyl-1H-indol-5-yl)-5-ethyl-4-hydroxy-2-oxo-1,2-dihydropyridine-3-carboxylic acid] | < 1 | 1 to 3.5 (≈ 2.21 to 7.73 µM) | 3.5 to 12.5 (≈ 7.73 to 27.6 µM) | 12.5 to 150 (≈ 27.6 to 331 µM)
8 | CCc1c(-c2ccc3c(c2)cc(CN2CCC(F)(F)C2)n3C)[nH]c(=O)c(C(=O)O)c1O [Cpd 176, 6-(2-((3,3-difluoropyrrolidin-1-yl)methyl)-1-methyl-1H-indol-5-yl)-5-ethyl-4-hydroxy-2-oxo-1,2-dihydropyridine-3-carboxylic acid] | < 1 | 1 to 3.5 (≈ 2.32 to 8.11 µM) | 12.5 to 150 (≈ 29 to 348 µM) | 12.5 to 150 (≈ 29 to 348 µM)
9 | CCc1c(-c2ccc3c(c2)cc(CN2CCC(NC(C)=O)C2)n3C)[nH]c(=O)c(C(=O)O)c1O (stereo not drawn) [Cpd 183, 6-(2-((3-acetamidopyrrolidin-1-yl)methyl)-1-methyl-1H-indol-5-yl)-5-ethyl-4-hydroxy-2-oxo-1,2-dihydropyridine-3-carboxylic acid] | < 1 | 12.5 to 150 (≈ 27.6 to 331 µM) | 1 to 3.5 (≈ 2.21 to 7.73 µM) | 12.5 to 150 (≈ 27.6 to 331 µM)
10 | CCc1c(-c2ccc3c(c2)cc(CN2CCC[C@H]2C(=O)OC)n3C)[nH]c(=O)c(C(=O)O)c1O [Cpd 190, (S)-5-ethyl-4-hydroxy-6-(2-((2-(methoxycarbonyl)pyrrolidin-1-yl)methyl)-1-methyl-1H-indol-5-yl)-2-oxo-1,2-dihydropyridine-3-carboxylic acid] | < 1 | 3.5 to 12.5 (≈ 7.72 to 27.6 µM) | 12.5 to 150 (≈ 27.6 to 331 µM) | 12.5 to 150 (≈ 27.6 to 331 µM)
11 | CCc1c(-c2ccc3c(c2)cc(CN2CCC(C(=O)N(C)C)C2)n3C)[nH]c(=O)c(C(=O)O)c1O (stereo not drawn) [Cpd 191, 6-(2-((3-(dimethylcarbamoyl)pyrrolidin-1-yl)methyl)-1-methyl-1H-indol-5-yl)-5-ethyl-4-hydroxy-2-oxo-1,2-dihydropyridine-3-carboxylic acid] | < 1 | 3.5 to 12.5 (≈ 7.5 to 26.8 µM) | 1 to 3.5 (≈ 2.14 to 7.5 µM) | 12.5 to 150 (≈ 26.8 to 322 µM)
12 | CCc1c(-c2ccc3c(c2)cc(CN2CC(F)(F)C2)n3C)[nH]c(=O)c(C(=O)O)c1O [Cpd 195, 6-(2-((3,3-difluoroazetidin-1-yl)methyl)-1-methyl-1H-indol-5-yl)-5-ethyl-4-hydroxy-2-oxo-1,2-dihydropyridine-3-carboxylic acid] | < 1 | 1 to 3.5 (≈ 2.4 to 8.39 µM) | 3.5 to 12.5 (≈ 8.39 to 29.9 µM) | 12.5 to 150 (≈ 29.9 to 359 µM)
13 | CCc1c(-c2ccc3c(c2)cc(CN2C[C@@H]4[C@H](C2)[C@H]4N(Cc2ccccc2)Cc2ccccc2)n3C)[nH]c(=O)c(C(=O)O)c1O [Cpd 196, 6-(2-(((1R,5S,6s)-6-(dibenzylamino)-3-azabicyclo[3.1.0]hexan-3-yl)methyl)-1-methyl-1H-indol-5-yl)-5-ethyl-4-hydroxy-2-oxo-1,2-dihydropyridine-3-carboxylic acid] | 3.5 to 12.5 (≈ 5.81 to 20.7 µM) | 12.5 to 150 (≈ 20.7 to 249 µM) | 12.5 to 150 (≈ 20.7 to 249 µM) | 12.5 to 150 (≈ 20.7 to 249 µM)
14 | CCc1c(-c2ccc3c(c2)cc(CN2C[C@@H]4[C@H](C2)[C@H]4N(C)C)n3C)[nH]c(=O)c(C(=O)O)c1O [Cpd 197, 6-(2-(((1R,5S,6s)-6-(dimethylamino)-3-azabicyclo[3.1.0]hexan-3-yl)methyl)-1-methyl-1H-indol-5-yl)-5-ethyl-4-hydroxy-2-oxo-1,2-dihydropyridine-3-carboxylic acid] | < 1 | 3.5 to 12.5 (≈ 7.77 to 27.7 µM) | 1 to 3.5 (≈ 2.22 to 7.77 µM) | 12.5 to 150 (≈ 27.7 to 333 µM)
15 | CCc1c(-c2ccc3c(c2)cc(CN[C@H]2[C@@H]4CNC[C@@H]42)n3C)[nH]c(=O)c(C(=O)O)c1O [Cpd 198, 6-(2-(((1R,5S,6s)-3-azabicyclo[3.1.0]hexan-6-ylamino)methyl)-1-methyl-1H-indol-5-yl)-5-ethyl-4-hydroxy-2-oxo-1,2-dihydropyridine-3-carboxylic acid] | 1 to 3.5 (≈ 2.37 to 8.28 µM) | 12.5 to 150 (≈ 29.6 to 355 µM) | 12.5 to 150 (≈ 29.6 to 355 µM) | 12.5 to 150 (≈ 29.6 to 355 µM)
16 | CCc1c(-c2ccc3c(c2)cc(CNCCNC)n3C)[nH]c(=O)c(C(=O)O)c1O [Cpd 204, 5-ethyl-4-hydroxy-6-(1-methyl-2-((2-(methylamino)ethylamino)methyl)-1H-indol-5-yl)-2-oxo-1,2-dihydropyridine-3-carboxylic acid] | 1 to 3.5 (≈ 2.51 to 8.78 µM) | 12.5 to 150 (≈ 31.4 to 376 µM) | 3.5 to 12.5 (≈ 8.78 to 31.4 µM) | 12.5 to 150 (≈ 31.4 to 376 µM)
17 | CCc1c(-c2ccc3c(c2)cc(CNCCN)n3C)[nH]c(=O)c(C(=O)O)c1O [Cpd 205, 6-(2-((2-aminoethylamino)methyl)-1-methyl-1H-indol-5-yl)-5-ethyl-4-hydroxy-2-oxo-1,2-dihydropyridine-3-carboxylic acid] | 1 to 3.5 (≈ 2.6 to 9.1 µM) | 12.5 to 150 (≈ 32.5 to 390 µM) | 12.5 to 150 (≈ 32.5 to 390 µM) | 12.5 to 150 (≈ 32.5 to 390 µM)
18 | CCc1c(-c2ccc3c(c2)cc(CN2CC(N(C)Cc4ccccc4)C2)n3C)[nH]c(=O)c(C(=O)O)c1O [Cpd 206, 6-(2-((3-(benzyl(methyl)amino)azetidin-1-yl)methyl)-1-methyl-1H-indol-5-yl)-5-ethyl-4-hydroxy-2-oxo-1,2-dihydropyridine-3-carboxylic acid] | < 1 | 3.5 to 12.5 (≈ 6.99 to 25 µM) | 3.5 to 12.5 (≈ 6.99 to 25 µM) | 12.5 to 150 (≈ 25 to 300 µM)
